Experimental data as given in ChEMBL document CHEMBL3779859, “Synergistic activity of a short lipidated antimicrobial peptide (lipoAMP) and colistin or tobramycin against Pseudomonas aeruginosa from cystic fibrosis patients” (Medchemcomm, 2016).
Converted amounts (≈) assume the structure as drawn. The source made the active and inactive calls. No cut-off for these calls is given here. Peptide text beside a SMILES is read from it. * marks the point of attachment. Decanoyl = CCCCCCCCCC(=O)*

How the values were obtained:
Pseudomonas aeruginosa [1] = test: Antibacterial activity against Pseudomonas aeruginosa KD491 clinical isolate after 18 to 22 hrs by checkerboard method in presence of colistin; format: functional
Pseudomonas aeruginosa [2] = test: Antibacterial activity against Pseudomonas aeruginosa Clone C clinical isolate assessed as growth inhibition at 8 ug/ml measured every 15 mins by microtiter plate reader method in presence of […] ug/ml colistin; format: functional, organism-based
Pseudomonas aeruginosa [3] = test: Antibacterial activity against Pseudomonas aeruginosa KD491 clinical isolate assessed as delay in growth rate in exponential phase of bacterial growth curve at 4 to 8 ug/ml measured every 15 mins by microtiter plate reader method; format: functional, organism-based
Pseudomonas aeruginosa [4] = test: Antibacterial activity against Pseudomonas aeruginosa LES400 clinical isolate after 16 to 20 hrs by microdilution assay; format: functional
Pseudomonas aeruginosa [5] = test: Antibacterial activity against Pseudomonas aeruginosa PAO1 clinical isolate assessed as delay in growth at 4 to 32 ug/ml measured every 15 mins by microtiter plate reader method; format: functional, organism-based
Pseudomonas aeruginosa [6] = test: Antibacterial activity against Pseudomonas aeruginosa KD491 clinical isolate assessed as inhibition of biofilm formation at 2 ug/ml after 18 to 22 hrs by crystal violet staining-based polystyrene microtiter plate reader method; format: functional
Pseudomonas aeruginosa [7] = test: Antibacterial activity against Pseudomonas aeruginosa KD491 clinical isolate assessed as inhibition of biofilm formation at 32 ug/ml after 18 to 22 hrs by crystal violet staining-based polystyrene microtiter plate reader method; format: functional
Pseudomonas aeruginosa [8] = test: Antibacterial activity against Pseudomonas aeruginosa LESB58 clinical isolate assessed as delay in growth rate in exponential phase of bacterial growth curve at 4 to 32 ug/ml measured every 15 mins by microtiter plate reader method; format: functional, organism-based
Pseudomonas aeruginosa [9] = test: Antibacterial activity against Pseudomonas aeruginosa Clone C clinical isolate assessed as inhibition of biofilm formation at 128 ug/ml after 18 to 22 hrs by crystal violet staining-based polystyrene microtiter plate reader method; format: functional
Pseudomonas aeruginosa [10] = test: Antibacterial activity against Pseudomonas aeruginosa PAO1 clinical isolate assessed as inhibition of biofilm formation at 64 ug/ml after 18 to 22 hrs by crystal violet staining-based polystyrene microtiter plate reader method; format: functional
Pseudomonas aeruginosa [11] = test: Antibacterial activity against Pseudomonas aeruginosa Clone C clinical isolate assessed as inhibition of biofilm formation at 32 ug/ml after 18 to 22 hrs by crystal violet staining-based polystyrene microtiter plate reader method in absence of colistin; format: functional, organism-based
[12] = Hemolytic activity in erythrocytes (unknown origin) at 250 ug/ml; format: ADME, cell-based, Erythrocyte; details: read-out: Activity
Pseudomonas aeruginosa [13] = test: Antibacterial activity against Pseudomonas aeruginosa KD491 clinical isolate assessed as growth inhibition at 8 ug/ml measured every 15 mins by microtiter plate reader method in presence of 1 ug/ml tobramycin; format: functional, organism-based
Pseudomonas aeruginosa [14] = test: Antibacterial activity against Pseudomonas aeruginosa PAO1 clinical isolate assessed as growth inhibition at 32 ug/ml measured every 15 mins by microtiter plate reader method in presence of […] ug/ml tobramycin; format: functional, organism-based
Pseudomonas aeruginosa [15] = test: Antibacterial activity against Pseudomonas aeruginosa PAO1 clinical isolate assessed as inhibition of biofilm formation at 32 ug/ml after 18 to 22 hrs by crystal violet staining-based polystyrene microtiter plate reader method in absence of colistin; format: functional, organism-based
Pseudomonas aeruginosa [16] = test: Antibacterial activity against Pseudomonas aeruginosa MIDLANDS clinical isolate after 16 to 20 hrs by microdilution assay; format: functional
Pseudomonas aeruginosa [17] = test: Antibacterial activity against Pseudomonas aeruginosa PAO1 clinical isolate after 16 to 20 hrs by microdilution assay; format: functional
Pseudomonas aeruginosa [18] = test: Antibacterial activity against Pseudomonas aeruginosa PAO1 clinical isolate assessed as growth inhibition at 4 ug/ml measured every 15 mins by microtiter plate reader method in presence of 1 ug/ml colistin; format: functional, organism-based
Pseudomonas aeruginosa [19] = test: Antibacterial activity against Pseudomonas aeruginosa VW313 clinical isolate after 16 to 20 hrs by microdilution assay; format: functional
Pseudomonas aeruginosa [20] = test: Antibacterial activity against Pseudomonas aeruginosa D599 clinical isolate after 16 to 20 hrs by microdilution assay; format: functional
Pseudomonas aeruginosa [21] = test: Antibacterial activity against Pseudomonas aeruginosa KD491 clinical isolate assessed as growth inhibition at 4 ug/ml measured every 15 mins by microtiter plate reader method in presence of […] ug/ml colistin; format: functional, organism-based
Pseudomonas aeruginosa [22] = test: Antibacterial activity against Pseudomonas aeruginosa Clone C clinical isolate assessed as inhibition of biofilm formation at 32 ug/ml after 18 to 22 hrs by crystal violet staining-based polystyrene microtiter plate reader method in presence of 2 ug/ml tobramycin; format: functional, organism-based
Pseudomonas aeruginosa [23] = test: Antibacterial activity against Pseudomonas aeruginosa LESB58 clinical isolate assessed as delay in growth at 4 to 32 ug/ml measured every 15 mins by microtiter plate reader method; format: functional, organism-based
Pseudomonas aeruginosa [24] = test: Antibacterial activity against Pseudomonas aeruginosa PAO1 clinical isolate after 18 to 22 hrs by checkerboard method in presence of tobramycin; format: functional
Pseudomonas aeruginosa [25] = test: Antibacterial activity against Pseudomonas aeruginosa PAO1 clinical isolate assessed as inhibition of biofilm formation at 32 ug/ml after 18 to 22 hrs by crystal violet staining-based polystyrene microtiter plate reader method in presence of 2 ug/ml colistin; format: functional
[26] = Hemolytic activity in erythrocytes (unknown origin) at 32 ug/ml; format: ADME, cell-based, Erythrocyte; details: read-out: Activity
Pseudomonas aeruginosa [27] = test: Antibacterial activity against Pseudomonas aeruginosa PAO1 clinical isolate assessed as inhibition of biofilm formation at 4 ug/ml after 18 to 22 hrs by crystal violet staining-based polystyrene microtiter plate reader method in presence of 0.5 ug/ml tobramycin; format: functional, organism-based
Pseudomonas aeruginosa [28] = test: Antibacterial activity against Pseudomonas aeruginosa PAO1 clinical isolate assessed as inhibition of biofilm formation at 32 ug/ml after 18 to 22 hrs by crystal violet staining-based polystyrene microtiter plate reader method in presence of 2 ug/ml tobramycin; format: functional, organism-based
Pseudomonas aeruginosa [29] = test: Antibacterial activity against Pseudomonas aeruginosa LESB58 clinical isolate assessed as growth inhibition at 4 ug/ml measured every 15 mins by microtiter plate reader method in presence of 2 ug/ml colistin; format: functional, organism-based
Pseudomonas aeruginosa [30] = test: Antibacterial activity against Pseudomonas aeruginosa VW1540 clinical isolate after 16 to 20 hrs by microdilution assay; format: functional
Pseudomonas aeruginosa [31] = test: Antibacterial activity against Pseudomonas aeruginosa LESB58 clinical isolate assessed as growth inhibition at 32 ug/ml measured every 15 mins by microtiter plate reader method in presence of 1 ug/ml tobramycin; format: functional, organism-based
Pseudomonas aeruginosa [32] = test: Antibacterial activity against Pseudomonas aeruginosa Clone C clinical isolate after 16 to 20 hrs by microdilution assay; format: functional
Pseudomonas aeruginosa [33] = test: Antibacterial activity against Pseudomonas aeruginosa KD491 clinical isolate after 18 to 22 hrs by checkerboard method in presence of tobramycin; format: functional
Pseudomonas aeruginosa [34] = test: Antibacterial activity against Pseudomonas aeruginosa PAO1 clinical isolate after 18 to 22 hrs by checkerboard method in presence of colistin; format: functional
Pseudomonas aeruginosa [35] = test: Antibacterial activity against Pseudomonas aeruginosa VW0247 clinical isolate after 16 to 20 hrs by microdilution assay; format: functional
Pseudomonas aeruginosa [36] = test: Antibacterial activity against Pseudomonas aeruginosa Clone C clinical isolate assessed as delay in growth at 8 to 16 ug/ml measured every 15 mins by microtiter plate reader method; format: functional, organism-based
Pseudomonas aeruginosa [37] = test: Antibacterial activity against Pseudomonas aeruginosa kl 3.2 clinical isolate after 16 to 20 hrs by microdilution assay; format: functional
Pseudomonas aeruginosa [38] = test: Antibacterial activity against Pseudomonas aeruginosa kl 1.1 clinical isolate after 16 to 20 hrs by microdilution assay; format: functional
Pseudomonas aeruginosa [39] = test: Antibacterial activity against Pseudomonas aeruginosa KD491 clinical isolate assessed as delay in growth at 4 to 8 ug/ml measured every 15 mins by microtiter plate reader method; format: functional, organism-based

CCCCCCCCCC(=O)NCCCC[C@H](NC(=O)[C@H](Cc1c[nH]c2ccccc12)NC(=O)[C@H](CCCNC(=N)N)NC(=O)[C@H](Cc1c[nH]c2ccccc12)NC(=O)[C@H](CCCNC(=N)N)NC(=O)[C@H](Cc1c[nH]c2ccccc12)NC(=O)[C@@H](N)CCCNC(=N)N)C(=O)O (H-RWRWRWK(Decanoyl)-OH)
fractional inhibitory concentration index (FICI) (Pseudomonas aeruginosa [1]): 0.2625
growth inhibition (GI) (Pseudomonas aeruginosa [2]): Active
Activity (Pseudomonas aeruginosa [3]): Active
MIC (Pseudomonas aeruginosa [4]): 64 µg/mL (≈ 48.2 µM)
Activity (Pseudomonas aeruginosa [5]): Active
inhibition at 2 µg/mL (Pseudomonas aeruginosa [6]): 45%
inhibition at 32 µg/mL (Pseudomonas aeruginosa [7]): 80%
Activity (Pseudomonas aeruginosa [8]): Active
inhibition at 128 µg/mL (Pseudomonas aeruginosa [9]): 82%
inhibition at 64 µg/mL (Pseudomonas aeruginosa [10]): 81%
inhibition (Pseudomonas aeruginosa [11]): inactive
hemolysis at 250 ug/ml [12]: 50%
growth inhibition (GI) (Pseudomonas aeruginosa [13]): Active
growth inhibition (GI) (Pseudomonas aeruginosa [14]): Active
inhibition (Pseudomonas aeruginosa [15]): inactive
MIC (Pseudomonas aeruginosa [16]): 64 µg/mL (≈ 48.2 µM)
MIC (Pseudomonas aeruginosa [17]): 256 µg/mL (≈ 193 µM)
growth inhibition (GI) (Pseudomonas aeruginosa [18]): Active
MIC (Pseudomonas aeruginosa [19]): 32 µg/mL (≈ 24.1 µM)
MIC (Pseudomonas aeruginosa [20]): 128 µg/mL (≈ 96.4 µM)
growth inhibition (GI) (Pseudomonas aeruginosa [21]): Active
inhibition (Pseudomonas aeruginosa [22]): inactive
Activity (Pseudomonas aeruginosa [23]): Active
fractional inhibitory concentration index (FICI) (Pseudomonas aeruginosa [24]): 0.75
inhibition (INH) (Pseudomonas aeruginosa [25]): 84%
hemolysis at 32 ug/ml [26]: < 10%
inhibition (Pseudomonas aeruginosa [27]): inactive
inhibition (Pseudomonas aeruginosa [28]): inactive
growth inhibition (GI) (Pseudomonas aeruginosa [29]): Active
MIC (Pseudomonas aeruginosa [30]): 64 µg/mL (≈ 48.2 µM)
growth inhibition (GI) (Pseudomonas aeruginosa [31]): Active
MIC (Pseudomonas aeruginosa [32]): 128 µg/mL (≈ 96.4 µM)
fractional inhibitory concentration index (FICI) (Pseudomonas aeruginosa [33]): 0.375
fractional inhibitory concentration index (FICI) (Pseudomonas aeruginosa [34]): 0.3125
MIC (Pseudomonas aeruginosa [35]): 64 µg/mL (≈ 48.2 µM)
Activity (Pseudomonas aeruginosa [36]): Active
MIC (Pseudomonas aeruginosa [37]): 128 µg/mL (≈ 96.4 µM)
MIC (Pseudomonas aeruginosa [38]): 128 µg/mL (≈ 96.4 µM)
Activity (Pseudomonas aeruginosa [39]): Active
